Results: paper PMC1262691, “Probing stereoselective inhibition of the acyl binding site of cholesterol esterase with four diastereomers of 2'-N-α-methylbenzylcarbamyl-1, 1'-bi-2-naphthol” (BMC Biochemistry, 2005)
Structures can show the parent of a compound that is named as a salt.

How the values were obtained:
[1] = molecular target: T1, pancreatic cholesterol esterase (CEase) (Sus scrofa, UniProt A0A286ZKB1); test: time-dependent (pseudo substrate) inhibition kinetics, PNPB hydrolysis at […] nm; type: biochemical
T1 construct: gene CEL
T1 sequence (A0A286ZKB1 96-682): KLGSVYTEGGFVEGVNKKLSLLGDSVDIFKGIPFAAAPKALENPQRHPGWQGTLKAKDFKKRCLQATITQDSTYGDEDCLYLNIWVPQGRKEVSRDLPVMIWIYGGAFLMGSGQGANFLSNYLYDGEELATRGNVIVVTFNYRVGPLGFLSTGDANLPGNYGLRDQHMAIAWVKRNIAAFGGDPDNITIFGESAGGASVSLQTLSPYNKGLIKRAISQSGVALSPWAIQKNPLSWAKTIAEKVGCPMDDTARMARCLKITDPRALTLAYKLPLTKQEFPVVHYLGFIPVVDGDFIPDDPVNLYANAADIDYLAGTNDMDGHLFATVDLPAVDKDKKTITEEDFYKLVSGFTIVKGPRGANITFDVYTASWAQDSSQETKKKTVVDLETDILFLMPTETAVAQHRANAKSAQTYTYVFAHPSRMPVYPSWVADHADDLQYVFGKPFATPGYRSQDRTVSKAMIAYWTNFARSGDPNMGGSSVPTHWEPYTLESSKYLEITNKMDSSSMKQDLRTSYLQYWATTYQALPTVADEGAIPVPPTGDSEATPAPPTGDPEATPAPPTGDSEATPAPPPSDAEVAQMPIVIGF

[2] = molecular target: T1, pancreatic cholesterol esterase (CEase); test: protection of the enzyme against carbamate inactivation by […] TFA; type: biochemical
purified protein = substrate: CCCC(=O)Oc1ccc([N+](=O)[O-])cc1; test: purified protein; type: biochemical, Sus scrofa

Molecule: C[C@H](NC(=O)Oc1ccc2ccccc2c1-c1c(O)ccc2ccccc12)c1ccccc1 [(1S, αS)-1, 2'-N-(S)-α-methylbenzylcarbamyl-(S)-1, 1'-bi-2-naphthol]
- KI (inactivation) [1]: 6 ± 0.4 µM

Molecule: O=C(c1ccccc1)C(F)(F)F [TFA, trifluoroacetophenone]
- protection of the enzyme against carbamate inactivation by 2 μM TFA [2]: the enzyme is protected from inhibition by carbamate by binding of TFA

Molecule: C[C@H](NC(=O)Oc1ccc2ccccc2c1-c1c(O)ccc2ccccc12)c1ccccc1 [(1R, αS)-1, 2'-N-(S)-α-methylbenzylcarbamyl-(R)-1, 1'-bi-2-naphthol]
- KI (inactivation) [1]: 0.5 ± 0.03 µM

Molecule: C[C@@H](NC(=O)Oc1ccc2ccccc2c1-c1c(O)ccc2ccccc12)c1ccccc1 [(1R, αR)-1, 2'-N-(R)-α-methylbenzylcarbamyl-(R)-1, 1'-bi-2-naphthol]
- KI (inactivation) [1]: 0.2 ± 0.01 µM

Molecule: C[C@@H](NC(=O)Oc1ccc2ccccc2c1-c1c(O)ccc2ccccc12)c1ccccc1 [(1S, αR)-1, 2'-N-(R)-α-methylbenzylcarbamyl-(S)-1, 1'-bi-2-naphthol]
- KI (inactivation) [1]: 2 ± 0.1 µM

B1: pancreatic cholesterol esterase (CEase) (Sus scrofa) (protein)
chain: T1 sequence (A0A286ZKB1 96-682)
- Km (purified protein): 140 ± 10 µM
